Results from ChEMBL document CHEMBL1127396, “Adenosine deaminase inhibitors. Synthesis and biological evaluation of putative metabolites of (+)-erythro-9-(2S-hydroxy-3R-nonyl)adenine” (J Med Chem, 1994).

Target: T1, Adenosine deaminase (Bos taurus, UniProt P56658)
T1 sequence (P56658 whole entry): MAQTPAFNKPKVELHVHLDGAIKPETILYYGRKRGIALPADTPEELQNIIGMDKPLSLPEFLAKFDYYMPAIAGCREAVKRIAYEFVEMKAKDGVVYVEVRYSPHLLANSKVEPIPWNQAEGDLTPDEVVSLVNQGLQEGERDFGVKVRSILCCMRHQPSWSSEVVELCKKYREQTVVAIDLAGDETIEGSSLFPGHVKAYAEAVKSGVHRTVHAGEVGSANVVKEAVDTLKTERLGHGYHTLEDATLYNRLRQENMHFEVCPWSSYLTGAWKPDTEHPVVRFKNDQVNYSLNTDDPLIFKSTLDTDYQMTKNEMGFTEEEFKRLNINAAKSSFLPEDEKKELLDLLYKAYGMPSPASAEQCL
Assay: Tested for binding affinity against calf intestinal Adenosine Deaminase (ADA)

SMILES	Ki [nM]
CCCCCC[C@H]([C@H](C)O)n1c(O)nc2c(N)ncnc21	6.4
CCCCCC[C@H]([C@H](C)O)[N+]1([O-])C=Nc2c(N)ncnc21 (some centres undefined)	3.8
CCCCCC[C@H]([C@H](C)O)[N+]1([O-])C(=O)Nc2c(N)ncnc21 (some centres undefined)	15.8
CCCCCC[C@H]([C@H](C)O)n1cnc2c(N)ncnc21 [(+)-EHNA]	0.82
